In US20210179680A1, “POLYPEPTIDE, DERIVATIVES THEREOF, AND APPLICATION THEREOF IN PREPARATION OF DRUGS HAVING RESISTANCE TO PULMONARY FIBROSIS” (priority 2016, published 2021):
Bridge positions count the residues as written; N and C are the ends. Square brackets hold non-standard residues; d marks the D form. Peptide text beside a SMILES is read from it. S5 = C=CCCC[C@](C)(N)C(=O)O

Columns and labels:
TRB3 protein = target: T1, TRB3 protein (Homo sapiens, UniProt Q96RU7); experiment: Surface plasmon resonance (Biacore T200) binding of polypeptides to TRB3 protein; conditions: SPR, FIG. 4-1, 4-2 and Table 1
T1 construct: purchased RD
T1 sequence (Q96RU7 1-358): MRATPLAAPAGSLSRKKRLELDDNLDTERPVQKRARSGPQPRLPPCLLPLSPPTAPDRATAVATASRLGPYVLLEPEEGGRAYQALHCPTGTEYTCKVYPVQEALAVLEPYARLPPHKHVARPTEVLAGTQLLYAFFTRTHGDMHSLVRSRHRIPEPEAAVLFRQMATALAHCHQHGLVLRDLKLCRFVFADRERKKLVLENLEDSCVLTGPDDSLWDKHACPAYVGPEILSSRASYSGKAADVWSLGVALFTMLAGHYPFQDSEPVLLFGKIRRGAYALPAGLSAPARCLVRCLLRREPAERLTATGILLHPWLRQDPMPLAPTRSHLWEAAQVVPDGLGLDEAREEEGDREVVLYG
Method: The surface plasmon resonance experiment was carried out in a surface plasmon resonator Biacore T200, and the procedure was carried out in accordance with the instructions of the plasma resonator Biacore T200. Specific steps are as follows:
1. Purified TRB3 protein (purchased from RD) was coupled to a CMS chip (purchased from GE) by amidogen, and the unbound protein was eluted at a flow rate of 10 μL/min. The surface of the chip was equilibrated for 2 hours. Among them, the specific steps of amidogen coupling, elution and equilibration refer to the relevant instruction of GE's CMS chip.
2. 250 μL of the S1-S11 and MR2 polypeptide fragments prepared in Example 1 with different concentrations (800, 400, 200, 50, 12.5, 6.25, and 3.125 nM) were automatically injected, and the entire surface plasmon resonance experiment was carried out at 25° C. The buffer used was HBS-EP buffer [0.01 M HEPES, 0.15 M NaCl, 3 mM EDTA and 0.005% (w/w) surfactant TWEEN20]. Biacore T200's built-in analysis software was used to simulate the binding curves of different concentrations of peptides to TRB3.

[1] = system: mice with bleomycin-induced pulmonary fibrosis; experiment: HE staining pathomorphology and inflammatory score of bleomycin-induced pulmonary fibrosis; assay type: in vivo, C57BL/6 mice; conditions: Table 3 groups, 2 mg/kg i.p., after 28 days, grade 0-5
Method: Male C57BL/6 mice were fasted overnight, then anesthetized with 45 mg/kg sodium pentobarbital by injection intraperitoneally (i.p.), and intratracheally injected with bleomycin at a dose of 3 U/kg. The specific operation steps are as follows: cut the neck skin of the mouse with as little trauma as possible, expose the trachea with the assistance of elbow ophthalmic forceps, puncture the trachea and inject about 50 μL of bleomycin into the trachea with a microsyringe, rotate the mouse quickly and stand it upright for 5 minutes in order to make bleomycin evenly enter the left and right lobe, thereby constructing an animal model. The whole operation was performed at a surgical table at about […]. Mice in the sham operation group were intratracheally injected with an equal amount of physiological saline for injection.
General tissue changes and tissue products can be visualized by HE staining method, namely Hematoxylin and Eosin staining method, which is the most commonly used staining method for morphology. Among them, hematoxylin dyeing solution is an alkaline dyeing solution, which mainly makes the chromatin in the nucleus and the ribosome in the cytoplasm purple blue; eosin is an acid dye, which mainly makes the components in the cytoplasm and extracellular matrix red. Pulmonary fibrosis models were made according to the method described in Example 2 and administered in groups according to Table 3. After 28 days, the right lower lobe of lung tissue of the experimental animals was taken, and fixed with 4% (v/v) paraformaldehyde and embedded in paraffin. Section was performed on the largest cross-section of the paraffin block in which the lung tissue embedded, and basic pathological changes was observed through HE staining. […] The administration of polypeptides S1-S11 can reduce lung inflammation caused by bleomycin, and effectively ameliorate lung injury and restore normal lung structure.
The inflammatory grading was observed according to the results of HE staining, and the criteria were as follows (grade 0-5): grade “0”: normal tissue; grade “1”: extremely small inflammatory changes; grade “2”: mild to moderate inflammatory changes without apparent destruction of lung tissue structure; grade “3”: moderate inflammatory injury (thickening of alveolar diaphragm); grade “4”: moderate to severe inflammatory injury with formation of tissue mass, or the normal structure of lung tissue was destroyed by localized pneumonia area; grade “5”: severe inflammatory injury, severe destruction of the localized lung tissue structure, resulting in closure of lumen.
Pulmonary fibrosis models were made according to the method described in Example 2 and administered in groups according to Table 9. After 28 days, the right lower lobe of lung tissue of the experimental animals was taken, and fixed by 4% (v/v) paraformaldehyde and embedded in paraffin. Section was performed on the largest cross-section of the paraffin block in which the lung tissue embedded, and basic pathological changes was observed through HE staining.

[2] = target: T2, TRB3/MDM2 protein interaction (Homo sapiens, UniProt Q96RU7); experiment: Co-immunoprecipitation: inhibition of binding of MDM2 to TRB3 in BEAS-2B cells; assay type: cell-based; conditions: BEAS-2B cells with TRB3 expression plasmid, 1 mg/mL polypeptide, 12 hours, co-IP with MDM2 antibody
T2 construct: host or cells: BEAS-2B
T2 sequence (Q96RU7 1-358): T1 sequence (Q96RU7 1-358)
Method: 1. Human lung epithelial BEAS-2B cells (purchased from Institute of Basic Medical Sciences, Chinese Academy of Medical Sciences) were seeded in a 90 mm^2 culture dish. After the cells were adhered to the wall of culture dish, the TRB3 expression plasmid were transferred to the cells according to the method described in Example 5. After 24 hours, 1 mg/mL of the polypeptides MR2, S1, S2, S3, S4, S5, S6, S7, S8, S9, S10 or S11 prepared in Example 1 were added respectively, and the cells were incubated for 12 hours in a 37° C. incubator and then harvested.
2. Co-immunoprecipitation with MDM2 antibody was performed according to the method described in Example 3, followed by detection using TRB3 antibody.

[3] = α-helix ratio of polypeptides by circular dichroism; assay type: physicochemical; conditions: PBS solution, 1 mg/mL
Method: The α-helix ratio of the polypeptide was measured by a circular dichromatograph (purchased from Jasco, Japan). The polypeptides MR2, S1, S2, S3, S4, S5, S6, S7, S8, S9, S10 and S11 prepared in Example 1 were dissolved in PBS solution, and the working concentration of the circular dichromatograph was adjusted to 1 mg/mL. […] Among them, the α-helix ratio refers to the percentage of the number of peptide segments of the polypeptide that maintains the alpha helix of the secondary structure in the peptide segments of the total polypeptide.

Structure (SMILES) | interaction with the TRB3 protein (in words) (TRB3 protein) | Inflammatory score [1] | interaction of TRB3 and MDM2 protein (FIG. 5, in words) [2] | α-helicity (%) [3] | α-helix ratio compared with polypeptide MR2 (in words) [3]
CSCC[C@@H]1NC(=O)[C@H](CC(C)C)NC(=O)[C@@](C)(N)CCCC=CCCC[C@@](C)(C(=O)N[C@@H](Cc2ccccc2)C(=O)N[C@H](C(=O)N[C@@H](CS)C(=O)N[C@@H](C)C(=O)N[C@@H](CCCCN)C(=O)N[C@@H](CCCCN)C(=O)N[C@@H](CC(C)C)C(=O)N[C@@H](CCCCN)C(=O)N[C@@H](CCCCN)C(=O)N[C@@H](CCCNC(=N)N)C(=O)O)[C@@H](C)O)NC(=O)[C@H](C)NC1=O [S1, S5-Leu-Met-Ala-S5-Phe-Thr-Cys-Ala-Lys-Lys-Leu-Lys-Lys-Arg] (H-[S5]LMA[S5]FTCAKKLKKR-OH; staple 1-5; N-terminus and C-terminus assumed) | interacted with the TRB3 protein | 2.667 | interrupted | 39.5% | significantly higher than that of polypeptide MR2
CSCC[C@H](NC(=O)[C@H](CC(C)C)NC(=O)[C@@H](N)Cc1c[nH]cn1)C(=O)N[C@@H](C)C(=O)N[C@@H](CS)C(=O)N[C@@H](Cc1ccccc1)C(=O)N[C@H](C(=O)N[C@@H](CS)C(=O)N[C@@H](C)C(=O)N[C@@H](CCCCN)C(=O)N[C@@H](CCCCN)C(=O)N[C@@H](CC(C)C)C(=O)N[C@@H](CCCCN)C(=O)N[C@@H](CCCCN)C(=O)N[C@@H](CCCNC(=N)N)C(=O)O)[C@@H](C)O [MR2] (H-HLMACFTCAKKLKKR-OH; N-terminus and C-terminus assumed) | interacted with the TRB3 protein | 4 | interrupted | 0.0% | 
CSCC[C@H](NC(=O)[C@H](CC(C)C)NC(=O)[C@@H](N)Cc1c[nH]cn1)C(=O)N[C@@H](C)C(=O)N[C@@H](CS)C(=O)N[C@@H](Cc1ccccc1)C(=O)N[C@H](C(=O)N[C@@H](CS)C(=O)N[C@@]1(C)CCCC=CCCC[C@@](C)(C(=O)N[C@@H](CCCCN)C(=O)N[C@@H](CCCNC(=N)N)C(=O)O)NC(=O)[C@H](CC(C)C)NC(=O)[C@H](CCCCN)NC(=O)[C@H](CCCCN)NC1=O)[C@@H](C)O [S9, His-Leu-Met-Ala-Cys-Phe-Thr-Cys-S5-Lys-Lys-Leu-S5-Lys-Arg] (H-HLMACFTC[S5]KKL[S5]KR-OH; staple 9-13; N-terminus and C-terminus assumed) | interacted with the TRB3 protein | 2.167 | interrupted | 44.0% | significantly higher than that of polypeptide MR2
CSCC[C@H](NC(=O)[C@H](CC(C)C)NC(=O)[C@@H](N)Cc1c[nH]cn1)C(=O)N[C@@H](C)C(=O)N[C@@H](CS)C(=O)N[C@@H](Cc1ccccc1)C(=O)N[C@H](C(=O)N[C@@]1(C)CCCC=CCCC[C@@](C)(C(=O)N[C@@H](CCCCN)C(=O)N[C@@H](CCCCN)C(=O)N[C@@H](CCCNC(=N)N)C(=O)O)NC(=O)[C@H](CCCCN)NC(=O)[C@H](CCCCN)NC(=O)[C@H](C)NC1=O)[C@@H](C)O [S8, His-Leu-Met-Ala-Cys-Phe-Thr-S5-Ala-Lys-Lys-S5-Lys-Lys-Arg] (H-HLMACFT[S5]AKK[S5]KKR-OH; staple 8-12; N-terminus and C-terminus assumed) | interacted with the TRB3 protein | 2.833 | interrupted | 29.1% | significantly higher than that of polypeptide MR2
CSCC[C@H](NC(=O)[C@H](CC(C)C)NC(=O)[C@@H](N)Cc1c[nH]cn1)C(=O)N[C@@H](C)C(=O)N[C@@H](CS)C(=O)N[C@@H](Cc1ccccc1)C(=O)N[C@H](C(=O)N[C@@H](CS)C(=O)N[C@@H](C)C(=O)N[C@@]1(C)CCCC=CCCC[C@@](C)(C(=O)N[C@@H](CCCNC(=N)N)C(=O)O)NC(=O)[C@H](CCCCN)NC(=O)[C@H](CC(C)C)NC(=O)[C@H](CCCCN)NC1=O)[C@@H](C)O [S10, His-Leu-Met-Ala-Cys-Phe-Thr-Cys-Ala-S5-Lys-Leu-Lys-S5-Arg] (H-HLMACFTCA[S5]KLK[S5]R-OH; staple 10-14; N-terminus and C-terminus assumed) | interacted with the TRB3 protein | 3 | interrupted | 31.5% | significantly higher than that of polypeptide MR2
CSCC[C@H](NC(=O)[C@H](CC(C)C)NC(=O)[C@@H](N)Cc1c[nH]cn1)C(=O)N[C@@H](C)C(=O)N[C@@H](CS)C(=O)N[C@@H](Cc1ccccc1)C(=O)N[C@@]1(C)CCCC=CCCC[C@@](C)(C(=O)N[C@@H](CC(C)C)C(=O)N[C@@H](CCCCN)C(=O)N[C@@H](CCCCN)C(=O)N[C@@H](CCCNC(=N)N)C(=O)O)NC(=O)[C@H](CCCCN)NC(=O)[C@H](C)NC(=O)[C@H](CS)NC1=O [S7, His-Leu-Met-Ala-Cys-Phe-S5-Cys-Ala-Lys-S5-Leu-Lys-Lys-Arg] (H-HLMACF[S5]CAK[S5]LKKR-OH; staple 7-11; N-terminus and C-terminus assumed) | interacted with the TRB3 protein | 2 | interrupted | 51.0% | significantly higher than that of polypeptide MR2
